The source made the active and inactive calls.
Experiments:
[1] = molecular target: T1, Calpain-2 catalytic subunit (Sus scrofa, UniProt P43367); assay: pig calpain II inhibitor potency, dose response, biochemical, fluorogenic peptide substrate (AID 1420); format: functional
T1 sequence (P43367 whole entry): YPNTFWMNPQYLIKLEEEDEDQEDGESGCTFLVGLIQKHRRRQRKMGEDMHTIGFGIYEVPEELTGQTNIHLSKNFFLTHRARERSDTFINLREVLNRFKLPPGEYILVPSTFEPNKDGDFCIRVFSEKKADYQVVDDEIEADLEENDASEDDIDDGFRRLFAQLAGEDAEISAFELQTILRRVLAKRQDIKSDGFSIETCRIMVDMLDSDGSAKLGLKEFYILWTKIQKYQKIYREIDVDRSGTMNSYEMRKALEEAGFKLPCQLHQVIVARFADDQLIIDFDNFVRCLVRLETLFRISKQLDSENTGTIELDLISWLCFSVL

[2] = HEK293 cell cytotoxicity, dose response, cytotoxicity control, plate reader, cherry-picked samples (AID 743446); format: functional, cell-based
[3] = MC4R antagonists, dose response, counter-screen for LGR2 antagonist project, cell-based, plate reader, cherry pick (AID 743444); format: functional;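 also: transfected HEK 293 cells stimulated with alpha-MSH peptide; potency of inhibitors of the alpha-MSH evoked signal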
[4] = A549 cell cytotoxicity, dose response, cytotoxicity control, plate reader, cherry-pick, antagonist series (AID 743412); format: functional, cell-based
[5] = HepG2 cell cytotoxicity, dose response, cytotoxicity control, plate reader, cherry-pick, antagonist series (AID 743416); format: functional, cell-based
[6] = LGR2 antagonists, dose response, cell-based, HEK293, CRE-luciferase reporter, cherry pick, set 2 (AID 743343); format: functional;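 also: transfected cells were stimulated with diluted bursicon conditioned medium after compound addition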
[7] = C. albicans growth with fluconazole, confirmation, fluorescence, retest (AID 2467); format: functional, cell-based
[8] = NIH-3T3 fibroblast cytotoxicity, dose response, cytotoxicity control, cell-based, fluorescence, Alamar Blue, secondary assay (AID 2327); format: functional;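 also: NIH-3T3 mouse fibroblasts cultured with fluconazole at 8 µg/mL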
cells [9] = format: functional, cell-based
cells [10] = format: functional, cell-based; remark: listed apart in the source
[11] = molecular target: T2, Ubiquitin-conjugating enzyme E2 N (Homo sapiens, UniProt P61088); format: functional;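 also: Dose-response confirmation in a TR-FRET assay detecting UBC13-driven polyubiquitin chain formation, inhibition measured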
T2 sequence (P61088 whole entry): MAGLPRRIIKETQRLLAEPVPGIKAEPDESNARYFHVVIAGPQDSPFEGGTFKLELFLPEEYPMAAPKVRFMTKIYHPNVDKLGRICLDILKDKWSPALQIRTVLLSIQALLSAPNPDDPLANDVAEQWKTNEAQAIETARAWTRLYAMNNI

[12] = HepG2 cell cytotoxicity, dose response, cytotoxicity control for Shn3 inhibitor project, CellTiter-Glo, cherry-picked (AID 624134); format: functional, cell-based
[13] = Shn3 3'UTR reporter inhibitors, dose response, cell-based, Clone20 osteoblasts, firefly luciferase, cherry-picked (AID 624132); format: functional;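 also: firefly luciferase luminescence from reporter carrying the Shn3 3'UTR in osteoblasts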
[14] = control 3'UTR Renilla luciferase suppression, dose response, counter-screen for Shn3 inhibitor project, cell-based, Clone20-Shn3RL, cherry-picked (AID 624133); format: functional
Paired box protein Pax-8 = Paired box protein Pax-8 (Homo sapiens, UniProt Q06710); assay: inhibitors of PAX8-driven TPO luciferase reporter, dose response, RMG-I cells, cherry-pick (AID 687027); format: functional, cell-based;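 also: luciferase reporter driven by Pax8 target thyroperoxidase promoter measured by SteadyGlo luminescence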
Paired box protein Pax-8, sequence (Q06710 whole entry): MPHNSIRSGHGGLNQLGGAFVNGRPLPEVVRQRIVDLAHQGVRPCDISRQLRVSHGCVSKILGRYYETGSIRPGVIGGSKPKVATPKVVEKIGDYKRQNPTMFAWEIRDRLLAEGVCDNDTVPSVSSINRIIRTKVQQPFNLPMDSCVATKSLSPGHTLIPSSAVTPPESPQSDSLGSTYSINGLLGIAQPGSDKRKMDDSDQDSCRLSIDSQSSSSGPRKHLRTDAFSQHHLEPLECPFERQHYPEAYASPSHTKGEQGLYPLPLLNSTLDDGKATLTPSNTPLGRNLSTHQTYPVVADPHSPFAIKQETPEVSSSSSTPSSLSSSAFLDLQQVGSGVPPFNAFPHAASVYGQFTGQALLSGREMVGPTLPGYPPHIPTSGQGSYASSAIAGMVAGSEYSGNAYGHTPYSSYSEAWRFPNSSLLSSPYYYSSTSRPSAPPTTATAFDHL

Leucine aminopeptidase = molecular target: T3, Leucine aminopeptidase (Plasmodium falciparum 3D7, UniProt Q8IL11); assay: P. falciparum M17LAP inhibitors, primary screen, biochemical, fluorogenic H-Leu-NHMec substrate, 1536-well (AID 1619); format: functional
T3 sequence (Q8IL11 whole entry): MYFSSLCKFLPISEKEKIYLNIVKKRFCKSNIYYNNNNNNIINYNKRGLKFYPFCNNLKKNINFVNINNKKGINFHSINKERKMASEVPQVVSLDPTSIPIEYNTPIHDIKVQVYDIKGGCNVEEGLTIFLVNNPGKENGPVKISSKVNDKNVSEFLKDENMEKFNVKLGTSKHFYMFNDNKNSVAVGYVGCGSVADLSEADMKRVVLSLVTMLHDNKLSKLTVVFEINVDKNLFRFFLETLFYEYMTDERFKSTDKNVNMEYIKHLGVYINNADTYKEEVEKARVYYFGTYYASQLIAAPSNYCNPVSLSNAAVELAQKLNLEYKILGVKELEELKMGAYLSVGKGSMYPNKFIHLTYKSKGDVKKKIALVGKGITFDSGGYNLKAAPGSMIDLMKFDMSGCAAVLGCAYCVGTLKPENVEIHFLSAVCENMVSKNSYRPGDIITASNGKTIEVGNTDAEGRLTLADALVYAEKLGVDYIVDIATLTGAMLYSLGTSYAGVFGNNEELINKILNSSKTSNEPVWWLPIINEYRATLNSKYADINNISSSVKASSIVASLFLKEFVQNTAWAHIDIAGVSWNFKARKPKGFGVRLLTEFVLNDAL

## CCCCN(CC)CCNC(=O)CNC(=O)Cn1ccc2ccccc2c1=O
[1]
  IC50: 46.5 µM (not active)

## Cc1ccc(S(=O)(=O)Nc2ccc3c(c2)CC(=O)N([C@H](C)CO)C[C@@H](C)[C@H](CN(C)Cc2ccc(C(F)(F)F)cc2)O3)cc1
[2]
  AC50: 17.8 µM (active)
[3]
  AC50: 14.1 µM (active)
[4]
  AC50: 8.46 µM (active)
[5]
  AC50: 10.5 µM (active)
[6]
  AC50: 21.6 µM (active)

## O=C(O)c1cccc(CSc2nc(-c3ccccc3)cc(C(F)(F)F)n2)c1
[7]
  EC50: 5.9 µM (active)
[8]
  EC50: > 150 µM (inactive)

## Cn1cc(CC(=O)N2CCN(c3ccc(Cl)cc3)CC2)c2ccccc21
Cells [9]
  EC50: > 350 µM (not active)
Cells [10]
  EC50: > 350 µM (not active)

## Cc1nn(C)cc1S(=O)(=O)NCc1ccc2c(c1)OCO2
Cells [9]
  EC50: > 350 µM (not active)
Cells [10]
  EC50: > 350 µM (not active)

## COc1ccc(C(=O)N(CN2CCCC2=O)c2ccc(C)cc2)cc1
[7]
  EC50: > 38 µM (not active)
[8]
  EC50: 66 µM (active)

## CCN1C(=O)c2cccc3c(NC(=O)c4ccc(S(=O)(=O)N(C)C)cc4)ccc1c23
[11]
  IC50: > 20 µM (inactive)

## O=C1c2cccc3cccc(c23)C(=O)N1CCc1ccccc1
[11]
  IC50: > 20 µM (inactive)

## CC(=O)c1cc(C#N)c(N2CCCC2)nc1C
[7]
  EC50: > 38 µM (not active)
[8]
  EC50: > 160 µM (inactive)

## CCCCN(C(=O)c1c(C)[nH]c(C(=O)OCC)c1C)c1ccccc1
Cells [9]
  EC50: > 350 µM (not active)
Cells [10]
  EC50: > 350 µM (not active)

## CCC(=O)c1ccc(OCc2ccc(C(=O)c3ccccc3)cc2)cc1
[12]
  AC50: 26.3 µM (active)
[13]
  AC50: 3.29 µM (active)
[14]
  AC50: 5.86 µM (active)

## Cc1noc(C)c1S(=O)(=O)N(C)C[C@@H]1OCCCC[C@H](C)Oc2ccc(NS(=O)(=O)c3ccc(Cl)cc3)cc2C(=O)N([C@H](C)CO)C[C@@H]1C
Paired box protein Pax-8
  AC50: 10.4 µM (active)

## O=C(NCC(=O)N(Cc1ccco1)C(C(=O)NC1CCCCC1)c1cccnc1)c1cccs1 (centres undefined)
Cells [9]
  EC50: > 350 µM (not active)
Cells [10]
  EC50: > 350 µM (not active)

## Cc1ccc(C(=O)Nc2ccc3c(c2)nc(CCNC(=O)c2ccco2)n3C)cc1
Cells [9]
  EC50: > 350 µM (not active)
Cells [10]
  EC50: > 350 µM (not active)

## OCc1cc(O)c(OCc2ccccc2)cn1
Cells [9]
  EC50: > 350 µM (not active)
Cells [10]
  EC50: > 350 µM (not active)

## OC1(c2cn(Cc3ccccc3)nn2)CCCCC1
Leucine aminopeptidase
  IC50: 61.5 µM (active)

## Cc1c(O)c([S+]([O-])c2ccccc2)c(=O)n(-c2ccccc2)c1-c1ccccc1 (centres undefined)
Leucine aminopeptidase
  IC50: 15.1 µM (active)

## CC(C)NC(=S)N/N=C/C1=CCC2CC1C2(C)C (centres undefined)
[1]
  IC50: 49 µM (not active)

## CC(=O)Nc1ccc(Nc2ccc(S(=O)(=O)C(F)(F)F)cc2[N+](=O)[O-])cc1
[1]
  IC50: 20 µM (not active)

From ChEMBL document CHEMBL1201862, “PubChem BioAssay data set” (2004)
